Laboratory results reported in patent US20240115745A1, “COMPOUNDS COMPRISING A FIBROBLAST ACTIVATION PROTEIN LIGAND AND USE THEREOF” (3B PHARMACEUTICALS GMBH, priority 2021, published 2024).
Read-outs that look alike come from different tables or passages of the source. *1 amine or outer side, *2 acyl side, *3 side chain or, on linkers, in order; H or OH if unused. Where a SMILES comes first, the peptide text is derived from it. Bridges are numbered along the chain shown (N, C = ends). [ ]: non-standard residue; d: D form. The star is where a group is joined. ξ: configuration not given here. X4 = O=C(O)CN1CCN(CC(=O)O)CCN(CC(=O)NCCCOCCOCCOCCCN*)CCN(CC(=O)O)CC1; X11 = O=C(O)CN1CCN(CC(=O)O)CCN([C@H](CCC(=O)*)C(=O)O)CC1; DOTA = O=C(O)CN1CCN(CC(=O)O)CCN(CC(=O)*)CCN(CC(=O)O)CC1; X2 = O=C1NC(=O)C([*:3])=C1CC[C@H](N[*:1])C(=O)[*:2]; Maleimide(3,4-diyl) = O=C1NC(=O)C([*:2])=C1[*:1]; X7 = CN1C(=O)C([*:1])=C([*:2])C1=O; ξThr(3R) = C[C@@H](O)C(N)C(=O)O; Suc = O=C(CCC(=O)[*:2])[*:1]; Nle = CCCC[C@H](N)C(=O)O; X3 = NCCNCC(CNCCN)C(=O)*; Hexanoyl = CCCCCC(=O)*; CO = O=C([*:1])[*:2]; ξP = O=C(O)C1CCCN1; NHBu = CCCCN*

Assays:
[1] = target: T1, FAP-expressing human WI-38 fibroblasts (Homo sapiens, UniProt Q12884); assay: Competitive FACS binding assay;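 also: flow cytometry read-out of median Cy5 fluorescence on the cells, plotted versus test compound concentration, with IC50 derived by four-parameter logistic curve fitting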
T1 construct: FAP-expressing human WI-38 fibroblasts (ECACC) were cultured in EMEM; host or cells: WI-38 human fibroblasts

Recombinant human FAP = target: T2, Recombinant human FAP (Homo sapiens, UniProt Q12884); assay: FRET-based FAP protease activity assay; format: biochemical
T2 construct: purchased R&D systems 3715-SE

[2] = competition with 3 nM Cy5-labeled compound, WI-38 fibroblasts, 4° C., 1 hour, read-out: pIC50 Category (FACS) (converted)
[3] = recombinant human FAP, FRET-peptide substrate, 37° C., read-out: pIC50 Category (Activity) (converted)

T2 sequence (Q12884 26-760 limits assumed): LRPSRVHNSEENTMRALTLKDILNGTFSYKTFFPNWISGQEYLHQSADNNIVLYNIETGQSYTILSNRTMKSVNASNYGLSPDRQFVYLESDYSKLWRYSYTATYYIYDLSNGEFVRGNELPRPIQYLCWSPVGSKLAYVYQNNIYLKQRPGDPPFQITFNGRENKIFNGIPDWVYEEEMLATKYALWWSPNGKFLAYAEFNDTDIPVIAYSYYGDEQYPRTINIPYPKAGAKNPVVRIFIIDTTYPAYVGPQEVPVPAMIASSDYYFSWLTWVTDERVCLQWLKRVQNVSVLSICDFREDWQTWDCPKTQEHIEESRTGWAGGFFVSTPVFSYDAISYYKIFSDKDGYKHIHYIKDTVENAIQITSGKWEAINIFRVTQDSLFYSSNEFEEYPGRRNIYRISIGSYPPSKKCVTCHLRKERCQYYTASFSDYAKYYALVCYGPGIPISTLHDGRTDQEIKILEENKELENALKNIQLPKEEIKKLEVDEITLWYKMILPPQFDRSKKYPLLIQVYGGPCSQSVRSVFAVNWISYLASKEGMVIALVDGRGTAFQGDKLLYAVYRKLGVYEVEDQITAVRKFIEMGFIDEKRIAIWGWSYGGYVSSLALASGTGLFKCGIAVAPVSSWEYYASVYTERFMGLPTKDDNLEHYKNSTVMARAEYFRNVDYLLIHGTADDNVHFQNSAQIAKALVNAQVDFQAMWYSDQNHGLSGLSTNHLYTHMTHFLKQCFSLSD
T1 sequence (Q12884 whole entry): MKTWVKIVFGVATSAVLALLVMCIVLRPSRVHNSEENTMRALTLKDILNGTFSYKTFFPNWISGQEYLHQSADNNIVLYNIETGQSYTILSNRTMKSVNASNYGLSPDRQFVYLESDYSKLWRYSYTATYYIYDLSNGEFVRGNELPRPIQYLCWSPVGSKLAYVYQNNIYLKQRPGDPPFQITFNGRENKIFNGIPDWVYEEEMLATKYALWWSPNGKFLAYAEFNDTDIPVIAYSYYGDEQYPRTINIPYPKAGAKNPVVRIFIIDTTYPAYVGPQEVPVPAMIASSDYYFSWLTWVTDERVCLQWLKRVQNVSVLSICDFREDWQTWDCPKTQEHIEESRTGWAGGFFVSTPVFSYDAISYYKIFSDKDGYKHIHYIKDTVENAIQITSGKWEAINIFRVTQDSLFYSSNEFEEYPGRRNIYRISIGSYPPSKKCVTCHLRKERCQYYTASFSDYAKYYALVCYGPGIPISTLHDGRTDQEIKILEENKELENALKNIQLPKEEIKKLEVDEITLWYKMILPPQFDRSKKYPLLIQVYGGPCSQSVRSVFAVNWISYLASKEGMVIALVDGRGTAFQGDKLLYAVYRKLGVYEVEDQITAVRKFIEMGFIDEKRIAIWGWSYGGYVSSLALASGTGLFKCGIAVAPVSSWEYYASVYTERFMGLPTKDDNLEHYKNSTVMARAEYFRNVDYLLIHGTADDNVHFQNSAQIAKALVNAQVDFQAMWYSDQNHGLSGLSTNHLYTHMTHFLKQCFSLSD

IC50 [1, 2] [µM]	IC50 (Recombinant human FAP; [3]) [µM]	SMILES	IC50 [1] [µM]	IC50 (Recombinant human FAP) [µM]
< 0.1	< 0.1	CCCCCC(=O)N[C@H]1CSC2=C(SC[C@@H](C(=O)N[C@@H](CC(=O)O)C(=O)N[C@@H](CCCCNC(=O)CN3CCN(CC(=O)O)CCN(CC(=O)O)CCN(CC(=O)O)CC3)C(N)=O)NC(=O)[C@H](Cc3ccccc3)NC(=O)[C@H](CCC(N)=O)NC(=O)[C@H]([C@@H](C)O)NC(=O)[C@@H]3CCCN3C(=O)C3CCCN3C1=O)C(=O)NC2=O (stereo partly drawn) [Compound 2012, Hex-[Cys(mli)-Pro-Pro-Thr-Gln-Phe-Cys]-Asp-Lys(DOTA)-NH2] (Hexanoyl-C[ξP]PTQFCDK(DOTA)-NH2; linker 1-7 via Maleimide(3,4-diyl))	–	–
< 0.1	< 0.1	CCCCNC(=O)N[C@H]1CSC2=C(SC[C@@H](C(=O)N[C@@H](CC(=O)O)C(=O)N[C@@H](CCCCNC(=O)CN3CCN(CC(=O)O)CCN(CC(=O)O)CCN(CC(=O)O)CC3)C(N)=O)NC(=O)[C@H](Cc3ccccc3)NC(=O)[C@H](CCC(N)=O)NC(=O)C([C@@H](C)O)NC(=O)[C@@H]3CCCN3C(=O)[C@@H]3CCCN3C1=O)C(=O)NC2=O (stereo partly drawn) [Compound 2014, Buur-[Cys(mli)-Pro-Pro-Thr-Gln-Phe-Cys]-Asp-Lys(DOTA)-NH2] ({NHBu-CO}-CPP[ξThr(3R)]QFCDK(DOTA)-NH2; linker 1-7 via Maleimide(3,4-diyl))	–	–
< 0.1	< 0.1	CCCCNC(=O)N[C@H]1CSC2=C(SC[C@@H](C(=O)N[C@@H](CC(=O)O)C(=O)N[C@@H](CCCCNC(=O)CN3CCN(CC(=O)O)CCN(CC(=O)O)CCN(CC(=O)O)CC3)C(N)=O)NC(=O)[C@H](Cc3ccccc3)NC(=O)[C@H](CCC(N)=O)NC(=O)C([C@@H](C)O)NC(=O)[C@@H]3CCCN3C(=O)[C@@H]3CCCN3C1=O)C(=O)N(C)C2=O (stereo partly drawn) [Compound 2015, Hex-[Cys(mli(Me))-Pro-Pro-Thr-Gln-Phe-Cys]-Asp-Lys(DOTA)-NH2] ({NHBu-CO}-CPP[ξThr(3R)]QFCDK(DOTA)-NH2; linker 1-7 via X7)	–	–
< 0.1	< 0.1	CCCC[C@H](NC(=O)CCC(=O)NCCCOCCOCCOCCCNC(=O)CN1CCN(CC(=O)O)CCN(CC(=O)O)CCN(CC(=O)O)CC1)C(=O)N[C@H]1CSC2=C(SC[C@@H](C(=O)N[C@@H](CC(=O)O)C(N)=O)NC(=O)[C@H](Cc3ccccc3)NC(=O)[C@H](CCC(N)=O)NC(=O)[C@H]([C@@H](C)O)NC(=O)[C@@H]3CCCN3C(=O)[C@@H]3CCCN3C1=O)C(=O)N(C)C2=O [Compound 2016, DOTA-Ttds-Nle-[Cys(mli(Me))-Pro-Pro-Thr-Gln-Phe-Cys]-Asp-NH2] ({X4-Suc}-[Nle]CPPTQFCD-NH2; linker 2-8 via X7)	–	–
–	–	CCCCCC(=O)N[C@H]1CSC2=C(SC[C@@H](C(=O)N[C@@H](CC(=O)O)C(N)=O)NC(=O)[C@H](Cc3ccccc3)NC(=O)[C@H](CCC(N)=O)NC(=O)[C@H]([C@@H](C)O)NC(=O)[C@@H]3CCCN3C(=O)[C@@H]3CCCN3C1=O)C(=O)N(CCCOCCOCCOCCCNC(=O)CN1CCN(CC(=O)O)CCN(CC(=O)O)CCN(CC(=O)O)CC1)C2=O [Compound 2017, Hex-[Cys(mli(DOTA-Ttd))-Pro-Pro-Thr-Gln-Phe-Cys]-Asp-NH2] (HELM PEPTIDE1{[CCCCCC(=O)[*:2]].C.P.P.T.Q.F.C.D.[am]}|CHEM1{[O=C(O)CN1CCN(CC(=O)O)CCN(CC(=O)NCCCOCCOCCOCCCN2C(=O)C([*:1])=C([*:2])C2=O)CCN(CC(=O)O)CC1]}$PEPTIDE1,CHEM1,2:R3-1:R1|PEPTIDE1,CHEM1,8:R3-1:R2$$$V2.0)	< 0.1	< 0.1
–	–	CCCCCC(=O)N[C@H]1CSC2=C(SC[C@@H](C(=O)N[C@@H](CC(=O)O)C(N)=O)NC(=O)[C@H](Cc3ccccc3)NC(=O)[C@H](CCC(N)=O)NC(=O)[C@H]([C@@H](C)O)NC(=O)[C@@H]3CCCN3C(=O)[C@@H]3CCCN3C1=O)C(=O)N(CCCC(=O)CN1CCN(CC(=O)O)CCN(CC(=O)O)CCN(CC(=O)O)CC1)C2=O [Compound 2018, Hex-[Cys(mli(DOTA-Eda))-Pro-Pro-Thr-Gln-Phe-Cys]-Asp-NH2] (HELM PEPTIDE1{[CCCCCC(=O)[*:2]].C.P.P.T.Q.F.C.D.[am]}|CHEM1{[O=C(O)CN1CCN(CC(=O)O)CCN(CC(=O)CCCN2C(=O)C([*:1])=C([*:2])C2=O)CCN(CC(=O)O)CC1]}$PEPTIDE1,CHEM1,2:R3-1:R1|PEPTIDE1,CHEM1,8:R3-1:R2$$$V2.0)	< 0.1	< 0.1
< 0.1	< 0.1	CCCCCC(=O)N[C@H]1CSC2=C(SC[C@@H](C(=O)O)NC(=O)[C@H](Cc3ccccc3)NC(=O)[C@H](CCC(N)=O)NC(=O)[C@H]([C@@H](C)O)NC(=O)[C@@H]3CCCN3C(=O)[C@@H]3CCCN3C1=O)C(=O)N(CCCOCCOCCOCCCNC(=O)CN1CCN(CC(=O)O)CCN(CC(=O)O)CCN(CC(=O)O)CC1)C2=O [Compound 2019, Hex-[Cys(mli(DOTA-Ttd))-Pro-Pro-Thr-Gln-Phe-Cys]-OH]	–	–
< 0.1	< 0.1	CCCC[C@H](NC(=O)CCC(=O)NCCCOCCOCCOCCCNC(=O)CC[C@H](C(=O)O)N1CCN(CC(=O)O)CCN(CC(=O)O)CC1)C(=O)N[C@H]1CSC2=C(SC[C@@H](C(=O)NCCC(=O)O)NC(=O)[C@H](Cc3ccccc3)NC(=O)[C@H](CCC(N)=O)NC(=O)[C@H]([C@@H](C)O)NC(=O)[C@@H]3CCCN3C(=O)[C@@H]3CCCN3C1=O)C(=O)NC2=O [Compound 2021, NODAGA-Ttds-Nle-[Cys(mli)-Pro-Pro-Thr-Gln-Phe-Cys]-Bal-OH]	–	–
< 0.1	< 0.1	CCCC[C@H](NC(=O)CCC(=O)NCCCOCCOCCOCCCNC(=O)C(CNCCN)CNCCN)C(=O)N[C@H]1CSC2=C(SC[C@@H](C(=O)NCCC(=O)O)NC(=O)[C@H](Cc3ccccc3)NC(=O)[C@H](CCC(N)=O)NC(=O)[C@H]([C@@H](C)O)NC(=O)[C@@H]3CCCN3C(=O)[C@@H]3CCCN3C1=O)C(=O)NC2=O [Compound 2022, N4Ac-Ttds-Nle-[Cys(mli)-Pro-Pro-Thr-Gln-Phe-Cys]-Bal-OH]	–	–
< 0.1	< 0.1	CCCCCC(=O)N[C@H]1CSC2=C(CC[C@@H](C(=O)N[C@@H](CC(=O)O)C(=O)N[C@@H](CCCCNC(=O)CC[C@H](C(=O)O)N3CCN(CC(=O)O)CCN(CC(=O)O)CC3)C(N)=O)NC(=O)[C@H](Cc3ccccc3)NC(=O)[C@H](CCC(N)=O)NC(=O)[C@H]([C@@H](C)O)NC(=O)[C@@H]3CCCN3C(=O)[C@@H]3CCCN3C1=O)C(=O)NC2=O [Compound 2023, Hex-[Cys(mli)-Pro-Pro-Thr-Gln-Phe-Cys]-Asp-Lys(NODAGA)-NH2] (Hexanoyl-CPPTQF[X2]DK(X11)-NH2; thioether 1-7)	–	–
< 0.1	< 0.1	CCCCCC(=O)N[C@H]1CSC2=C(CC[C@@H](C(=O)N[C@@H](CC(=O)O)C(=O)N[C@@H](CCCCNC(=O)C(CNCCN)CNCCN)C(N)=O)NC(=O)[C@H](Cc3ccccc3)NC(=O)[C@H](CCC(N)=O)NC(=O)[C@H]([C@@H](C)O)NC(=O)[C@@H]3CCCN3C(=O)[C@@H]3CCCN3C1=O)C(=O)NC2=O [Compound 2024, Hex-[Cys(mli)-Pro-Pro-Thr-Gln-Phe-Cys]-Asp-Lys(N4Ac)-NH2] (Hexanoyl-CPPTQF[X2]DK(X3)-NH2; thioether 1-7)	–	–
–	–	CCCCCC(=O)N[C@H]1CSC2=C(SC[C@@H](C(=O)N[C@@H](CC(=O)O)C(N)=O)NC(=O)[C@H](Cc3ccccc3)NC(=O)[C@H](CCC(N)=O)NC(=O)[C@H]([C@@H](C)O)NC(=O)[C@@H]3CCCN3C(=O)[C@@H]3CCCN3C1=O)C(=O)N(CCCOCCOCCOCCCNC(=O)C(CNCCN)CNCCN)C2=O [Compound 2026, Hex-[Cys(mli(N4Ac-Ttd))-Pro-Pro-Thr-Gln-Phe-Cys]-Asp-NH2] (HELM PEPTIDE1{[CCCCCC(=O)[*:2]].C.P.P.T.Q.F.C.D.[am]}|CHEM1{[NCCNCC(CNCCN)C(=O)NCCCOCCOCCOCCCN1C(=O)C([*:1])=C([*:2])C1=O]}$PEPTIDE1,CHEM1,2:R3-1:R1|PEPTIDE1,CHEM1,8:R3-1:R2$$$V2.0)	< 0.1	< 0.1

SMILES	IC50 [1, 2] [µM]	IC50 (Recombinant human FAP; [3]) [µM]	IC50 [1] [µM]	IC50 (Recombinant human FAP) [µM]
CCCCCC(=O)N[C@H]1CSC2=C(SC[C@@H](C(=O)N[C@@H](CC(=O)O)C(N)=O)NC(=O)[C@H](Cc3ccccc3)NC(=O)[C@H](CCC(=O)O)NC(=O)[C@H]([C@@H](C)O)NC(=O)[C@@H]3CCCN3C(=O)[C@@H]3CCCN3C1=O)C(=O)N(CCCOCCOCCOCCCNC(=O)CN1CCN(CC(=O)O)CCN(CC(=O)O)CCN(CC(=O)O)CC1)C2=O [Compound 2020, Hex-[Cys(mli(DOTA-Ttd))-Pro-Pro-Thr-Glu-Phe-Cys]-Asp-NH2] (HELM PEPTIDE1{[CCCCCC(=O)[*:2]].C.P.P.T.E.F.C.D.[am]}|CHEM1{[O=C(O)CN1CCN(CC(=O)O)CCN(CC(=O)NCCCOCCOCCOCCCN2C(=O)C([*:1])=C([*:2])C2=O)CCN(CC(=O)O)CC1]}$PEPTIDE1,CHEM1,2:R3-1:R1|PEPTIDE1,CHEM1,8:R3-1:R2$$$V2.0)	< 0.1	< 0.1	–	–
